# Article PMC12474259, “ITF6475, a New Histone Deacetylase 6 Inhibitor, Prevents Painful Neuropathy Induced by Paclitaxel” (Toxics, 2025)
# Like-named read-outs stand apart in the source and are kept apart here.
# Legend:
# [1] = test system: C57BL/6 female mice; experiment: General toxicity: mortality, health, body weight, histopathology; format: in vivo; settings: for mortality: ITF6475 all doses p.o. daily
# Experimental: In the days of co-treatment, ricolinostat and all doses of ITF were administered 4 h before PTX. The animals were housed in a certified and limited-access facility with controlled temperature (22 °C ± 2) and humidity (50% ± 20) and an artificial 12 h:12 h light cycle from 7 a.m. to 7 p.m. Mice were monitored daily to evaluate the mortality and their health, and body weight was measured twice a week during the treatment period in order to monitor general conditions and to adjust the dose.
# (§1) At baseline and at the end of treatment, neurophysiological evaluations and dynamic tests were performed (Figure 1). Baseline neurophysiological results were used to randomize the animals into the 6 groups to ensure homogeneity. At the end of treatment, the animals were sacrificed by isoflurane overdose, caudal nerves, liver, spleen, thymus, kidneys, and sternum were used for histopathological analysis, and skin biopsies for intraepidermal nerve fiber (IENF) density analysis were collected. At the end of the study, blood was collected from the tail vein under isoflurane anesthesia into 1.5 mL Eppendorf tubes, centrifuged at 3500× g for 10 min at 4 °C, and then serum was transferred into a new tube and stored at –80 °C until examined for neurofilament light (NfL) level analysis.
# Liver, spleen, thymus, kidneys, and sternum were collected and fixed in 10% buffered formalin at room temperature for 4 days. After fixation, the sternum was decalcified for 48 h at room temperature in 10% buffered EDTA. After trimming, these samples were paraffin-embedded, cut into 3 µm thick sections, stained with hematoxylin–eosin, and examined with an Olympus BX51 light microscope (Olympus, Segrate, Italy).
# [2] = test system: neurofilament light (NfL); experiment: Serum neurofilament light (NfL) analysis in PIPN model; format: in vivo, mouse; settings: end of treatment
# Experimental: as §1
# Serum NfL concentrations were measured using an automated chemiluminescent enzyme immunoassay instrument LUMIPULSE G600 (LUMIPULSE G NfL Blood kit, Fujirebio, Pomezia, Italy). The concentration was expressed in pg/mL [27, 30, 31].
# [3] = test system: C57BL/6 female mice; experiment: Neuropathology, morphological analysis of caudal nerves; format: in vivo, mouse; settings: end of treatment, PTX alone or in combination
# Experimental: Caudal nerves were isolated for morphological analysis and processed as previously described, separating the proximal and the distal portions to obtain a better evaluation of the distal-to-proximal extension of the damage. Briefly, the caudal and sciatic nerves were immersion-fixed in 3% glutaraldehyde and were subsequently osmicated, dehydrated, and embedded in epoxy resin. Semithin sections of 1.5 μm thickness were prepared from at least three tissue blocks for each animal, stained with toluidine blue, and examined with a Nexcope Ne920 AUTO light microscope (TiEsseLab Srl, Milano, Italy).
# [4] = Pharmacokinetic assessment in mouse plasma (LC-MS/MS); format: in vivo; settings: for Cmax / AUC(0-t): oral; for AUC(0-t): read-out: AUC0–8h
# Experimental: For the determination of ITF6475 in mouse plasma (n. 3 mice/group), aliquots of 20 µL of samples were deproteinized by adding 300 µL of acetonitrile. After centrifugation, 100 µL of the supernatant was collected from each sample and allowed to dry in a nitrogen flow at 35 °C. The residue was then reconstituted in 150 µL of the mixture in 90% water/10% acetonitrile and 0.1% formic acid.
# Quantification of ITF6475 in the samples was carried out on a calibration curve in the range 1–1000 ng/mL. Quantification of Ricolinostat in mouse plasma was carried out on aliquots of 20 µL and deproteinized with 200 µL of acetonitrile. Aliquots of 100 µL of the supernatant were collected and diluted with 100 µL of the mixture in 90% water/10% acetonitrile and 0.1% formic acid. The calibration curve range was 1–1000 ng/mL.
# Samples were analyzed in an LC-MS/MS system, constituted by a Prominence Shimadzu HPLC (Shimadzu Italia S.r.l., Milano, Italy) and an API6500+ triple quadrupole mass spectrometer equipped with TurboIonSpray (Sciex, Milano, Italy). Analyses were carried out in a positive mode. The system was managed through the software Analyst 1.7.2 (Sciex, Milano, Italy).
# [5] = test system: C57BL/6 female mice; format: in vivo; settings: PTX + ricolinostat 50 mg/kg p.o. daily
# Experimental: (§2) C57BL/6 female mice (Inotiv, Udine, Italy) were used and randomized into six different groups (19 mice/group): one group was treated with PTX vehicle i.v., 1 time/week for 4 weeks and methocel 0.5% os, daily (VEH group); a second group was treated with PTX, i.v., 70 mg/kg 1 time/week for 4 weeks (PTX group); and the other four groups were treated with PTX, i.v., 70 mg/kg 1 time/week for 4 weeks and co-treated with ricolinostat, p.o., 50 mg/kg daily (PTX + ACY group), or with ITF6475, p.o., 1–6–12.5 mg/kg daily, p.o., (PTX + ITF1, PTX + ITF6, PTX + ITF12.5 groups), respectively (Figure 1). In the days of co-treatment, ricolinostat and all doses of ITF were administered 4 h before PTX. […] Mice were monitored daily to evaluate the mortality and their health, and body weight was measured twice a week during the treatment period in order to monitor general conditions and to adjust the dose.
# The onset of PIPN was assessed by evaluating the sensory nerve conduction velocity (NCV) and nerve action potential amplitude (SNAP) of caudal and digital nerves using the electromyography apparatus (Matrix Light, Micromed, Treviso, Italy). […] Latencies were measured from stimulus onset, and peak-to-peak amplitudes were calculated. The NCV was calculated considering the measured distance between the recording and the stimulating negative electrode divided by the latency. […]
# [6] = test system: C57BL/6 female mice; format: in vivo; settings: end of treatment, PTX + ACY 50 mg/kg p.o. daily, p < 0.01
# Experimental: as §2
# To evaluate the IENF density, glabrous skin punches from the plantar hind paw were fixed in paraformaldehyde-lysine and periodate sodium (PLP) 2%, cryoprotected and serially cut in 20 μm thick sections. […] The total number of PGP 9.5-positive IENF crossing the dermal-epidermal junction was counted by a blinded examiner (ACh) under a light microscope at 40× magnification (Nexcope Ne920 AUTO light microscope, TiEsseLab Srl, Milano, Italy). […]
# [7] = general statement on hydroxamic acids, no reference given; cited from earlier work
# [8] = 4 weeks, PTX 70 mg/kg i.v. 1 time/week, ricolinostat 50 mg/kg p.o. daily
Compound,"mortality [1, 8]","mice with mild, diffuse hepatic lipidosis ([1]; female, C57BL/6, mouse, in vivo, 4 weeks)","serum NfL vs. VEH ([2]; PTX 70 mg/kg i.v. alone, p < 0.001)",morphology of distal caudal nerves [3],morphology of proximal caudal nerves [3],AUC increase with dosage [4],"Cmax ([4]; 25 mg/kg, dose 25 mpk)","AUC(0-t) ([4]; 25 mg/kg, dose 25 mpk)","Cmax ([4]; 100 mg/kg, dose 100 mpk)","AUC(0-t) ([4]; 100 mg/kg, dose 100 mpk)","Cmax ([4]; 200 mg/kg, dose 200 mpk)","AUC(0-t) ([4]; 200 mg/kg, dose 200 mpk)","tolerability ([1]; 4 weeks, PTX 70 mg/kg i.v. 1 time/week, ricolinostat 50 mg/kg p.o. daily, ITF6475 1–6–12.5 mg/kg p.o. daily (all doses))",body weight vs. VEH ([1]; PTX alone or in combination with ricolinostat 50 mg/kg or all doses of ITF),"relevant toxicity ([1]; co-treated mice, ricolinostat 50 mg/kg or ITF6475 1–12.5 mg/kg p.o. daily with PTX)","histopathology of thymus and spleen ([1]; end of treatment, PTX alone or in combination with ricolinostat or ITF6475)",protection of PTX-induced reduction in digital nerve SNAP [5],IENF density vs. VEH [6],"serum NfL vs. VEH ([2]; PTX + ACY 50 mg/kg p.o. daily, p < 0.05)",protein binding (in words) [7]
"CC(=O)O[C@H]1C(=O)[C@@]2(C)[C@H]([C@H](OC(=O)c3ccccc3)[C@]3(O)C[C@H](OC(=O)[C@H](O)[C@@H](NC(=O)c4ccccc4)c4ccccc4)C(C)=C1C3(C)C)[C@]1(OC(C)=O)CO[C@@H]1C[C@@H]2O [PTX, paclitaxel]",no mortality was observed,approximately 25%,statistically significant difference,even more severe axonopathy,severe axonopathy with numerous degenerated fibers,,,,,,,,,,,,,,,
O=C(CCCCCCNC(=O)c1cnc(N(c2ccccc2)c2ccccc2)nc1)NO [ricolinostat],no mortality was observed,,,,,increase non-linearly at doses above 25 mg/kg,33.7 ng/mL,124 ng·h/mL,29.8 ng/mL,171 ng·h/mL,33.9 ng/mL,234 ng·h/mL,well tolerated,statistically significant increase in body weight,no evidence of relevant toxicity,thymic and splenic hypoplasia associated with reactive extramedullary ectopic hematopoiesis,significant protection of reduction in digital nerve SNAP,statistically significant reduction,statistically significant difference,not heavily protein-bound
